{
  "source": "patent US20250134918A1",
  "about": "“COMPOSITIONS AND METHODS USING A NICOTINAMIDE ADENINE DINUCLEOTIDE (NAD+) PRECURSOR AND AT LEAST ONE KETONE OR KETONE PRECURSOR” (SOCIETE DES PRODUITS NESTLE S.A., priority 2018, published 2025)",
  "system": "human iPSC-derived astrocytes (homozygous ApoE 3 or homozygous ApoE4 genotype)",
  "test": "Oxygen consumption (Seahorse XF96), FCCP-uncoupled maximal respiration",
  "type": "cell-based",
  "conditions": "hiPSC-derived astrocytes, ApoE3 (FIG. 6) and ApoE4 (FIG. 7); NR 0.5 mM for 24 hours; BHB 0.5 mM or 2 mM or BHP 2 mM for 1 h; FCCP 1 μM",
  "description": "Differentiated human iPSC-derived astrocytes with either a homozygous ApoE 3 genotype or homozygous ApoE4 genotype (and otherwise isogenic) were obtained from Cellular Dynamics International (CDI, Madison, WI, USA). The cells were thawed according to the manufacturer's instructions. Astrocytes were cultured in DMEM supplemented with 10% fetal calf serum and N2 complement. Oxygen consumption in human iPSC-derived astrocytes was measured in a Seahorse XF96 instrument (Seahorse Bioscience, North Billerica, MA, USA). Astrocytes were seeded directly into Seahorse 96-well tissue culture plates (XF96 FluxPaks no. 102416-100; Seahorse Bioscience) at a density of 40,000 cells per well. Cells were incubated for 24 hours with 0.5 mM of Nicotinamide riboside chloride (NR) or fresh medium before experiment. Four days after seeding, the cells were washed twice in KRBH containing 1 mM glucose and incubated for 1 h with the ketone bodies BHB (racemic (D,L) BHB) or BHP (D BHP) at the concentration indicated. The cells were maintained at 37° C. during the experiment. Mitochondrial respiration rates were determined every 6 minutes. […] The oxygen consumption rate in hiPSC-derived astrocytes was measured as an indication of mitochondrial function, using a Seahorse instrument. Through addition of the uncoupling agent FCCP, uncoupled (=maximal) respiration was determined.",
  "data": [
    {"smiles": "NC(=O)c1ccc[n+]([C@@H]2O[C@H](CO)[C@@H](O)[C@H]2O)c1", "note": "[NR, Nicotinamide riboside chloride]", "values": [
      {"measurement": "maximal respiration (uncoupled oxygen consumption rate)", "value": "Neither ketone bodies alone nor NR treatment significantly increases maximal respiration"}
    ]}
  ]
}
